Laboratory results: patent publication US20240124417A1, “COMPOUNDS USEFUL AS IMMUNOMODULATORS” (Bristol-Myers Squibb Company, priority 2019, published 2024)
pIC50: −log10 of the molar value.

target: T1, PD-1/PD-L1 (Homo sapiens, UniProt Q9NZQ7); test: PD-1/PD-L1 Homogenous Time-Resolved Fluorescence (HTRF) binding assay; conditions: PD-L1-His 10 nM, PD-1-Ig 20 nM
T1 construct: TVMV protease site linker (C); made in house; host or cells: HEK293T cells
Method in brief: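 Inhibitors pre-incubated 15 min with PD-L1-His extracellular domain (10 nM final) in dPBS with 0.1% BSA and 0.05% Tween-20, then PD-1-Ig (20 nM final) added for a further 15 min. Read-out by HTRF with europium cryptate anti-Ig (1 nM) and APC anti-His (20 nM). Related pairs: PD-1-Ig/PD-L2-His (20/5 nM), CD80-His/PD-L1-Ig (100/10 nM).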

T1 sequence (Q9NZQ7 18-239): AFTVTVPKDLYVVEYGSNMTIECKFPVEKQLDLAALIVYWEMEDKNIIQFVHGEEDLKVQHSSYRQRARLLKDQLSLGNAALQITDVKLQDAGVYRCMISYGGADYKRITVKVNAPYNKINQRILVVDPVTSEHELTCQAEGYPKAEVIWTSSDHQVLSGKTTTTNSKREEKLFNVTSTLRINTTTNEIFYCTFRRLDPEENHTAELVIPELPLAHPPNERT

Row | SMILES | pIC50
1 | Cc1c(COc2cc(OCc3cncc(C#N)c3)c(CN(C)CC(C)c3nnn[nH]3)cc2Cl)cccc1-c1cccc(OCCCNC[C@H](O)CO)c1Cl (stereo partly drawn) [Example 1035, 5-((2-(((2-(1H-Tetrazol-5-yl)propyl)(methyl)amino)methyl)-4-chloro-5-((2′-chloro-3′-(3-(((S)-2,3-dihydroxypropyl)amino)propoxy)-2-methyl-[1,1′-biphenyl]-3-yl)methoxy)-phenoxy)methyl)nicotinonitrile] | 8.89
2 | Cc1c(COc2cc(OCc3cncc(C#N)c3)c(CNCc3cc[nH]n3)cc2Cl)cccc1-c1cccc(OCC2CCCN(C)C2)c1Cl (stereo not shown) [Example 2588, 5-((2-((((1H-pyrazol-3-yl)methyl)amino)methyl)-4-chloro-5-((2′-chloro-2-methyl-3′-((1-methylpiperidin-3-yl)methoxy)-[1,1′-biphenyl]-3-yl)methoxy)phenoxy)methyl)nicotinonitrile] | 8.70
3 | Cc1c(COc2cc(OCc3cncc(C#N)c3)c(CN(C)Cc3cnc[nH]3)cc2Cl)cccc1-c1cccc(OC2CCN(C)CC2)c1Cl [Example 2049, 5-((2-((((1H-imidazol-5-yl)methyl)(methyl)amino)methyl)-4-chloro-5-((2′-chloro-2-methyl-3′-((1-methylpiperidin-4-yl)oxy)-[1,1′-biphenyl]-3-yl)methoxy)phenoxy)methyl)nicotinonitrile] | 8.80
4 | Cc1c(COc2cc(OCc3cncc(C#N)c3)c(CNCc3ncccn3)cc2Cl)cccc1-c1cccc(OCc2cncnc2)c1Cl [Example 2063, 5-((4-chloro-5-((2′-chloro-2-methyl-3′-(pyrimidin-5-ylmethoxy)-[1,1′-biphenyl]-3-yl)methoxy)-2-(((pyrimidin-2-ylmethyl)amino)methyl)phenoxy)methyl)nicotinonitrile] | 7.55
5 | CC(=O)NC1CCN(CCCOc2cccc(-c3cccc(COc4cc(OCc5cncc(C#N)c5)c(CN5CCCC(c6nnn[nH]6)C5)cc4Cl)c3C)c2C)CC1 (stereo not shown) [Example 1041, N-(1-(3-((3′-((4-((3-(1H-Tetrazol-5-yl)piperidin-1-yl)methyl)-2-chloro-5-((5-cyano-pyridin-3-yl)methoxy)phenoxy)methyl)-2,2′-dimethyl-[1,1′-biphenyl]-3-yl)oxy)propyl)-piperidin-4-yl)acetamide] | 9.30
6 | Cc1c(COc2cc(OCc3cncc(C#N)c3)c(CN3CCc4c(ncn4C)C3)cc2Cl)cccc1-c1cccc(OCC2CCCN(C)C2)c1Cl (stereo not shown) [Example 2592, 5-((4-chloro-5-((2′-chloro-2-methyl-3′-((1-methylpiperidin-3-yl)methoxy)-[1,1′-biphenyl]-3-yl)methoxy)-2-((1-methyl-1,4,6,7-tetrahydro-5H-imidazo[4,5-c]pyridin-5-yl)methyl)phenoxy)methyl)nicotinonitrile] | 8.44
7 | Cc1c(COc2cc(OCc3cncc(C#N)c3)c(CNCc3nccs3)cc2Cl)cccc1-c1cccc(OCC2CCCN(C)C2)c1Cl (stereo not shown) [Example 2585, 5-((4-chloro-5-((2′-chloro-2-methyl-3′-((1-methylpiperidin-3-yl)methoxy)-[1,1′-biphenyl]-3-yl)methoxy)-2-(((thiazol-2-ylmethyl)amino)methyl)phenoxy)methyl)nicotinonitrile] | 8.55
8 | Cc1c(COc2cc(OCc3cncc(C#N)c3)c(CN3CCC4C(C3)C(CO)=NN4C)cc2Cl)cccc1-c1cccc(OCC2CCCN(C)C2)c1Cl (stereo not shown) [Example 1029, 5-((4-Chloro-5-((2′-chloro-2-methyl-3′-((1-methylpiperidin-3-yl)methoxy)-[1,1′-biphenyl]-3-yl)methoxy)-2-((3-(hydroxymethyl)-1-methyl-1,3a,4,6,7,7a-hexahydro-5H-pyrazolo[4,3-c]pyridin-5-yl)methyl)phenoxy)methyl)nicotinonitrile] | 8.70
9 | Cc1c(COc2cc(OCc3cncc(C#N)c3)c(CN(C)Cc3cc(C)n(C)n3)cc2Cl)cccc1-c1cccc(OCCCN2CC[C@@H](O)C2)c1C [Example 2541, (R)-5-((4-chloro-2-((((1,5-dimethyl-1H-pyrazol-3-yl)methyl)(methyl)amino)methyl)-5-((3′-(3-(3-hydroxypyrrolidin-1-yl)propoxy)-2,2′-dimethyl-[1,1′-biphenyl]-3-yl)methoxy)phenoxy)methyl)nicotinonitrile] | 8.41
10 | CCc1csc(CNCc2cc(Cl)c(OCc3cccc(-c4cccc(OCC5CCCN(C)C5)c4Cl)c3C)cc2OCc2cncc(C#N)c2)n1 (stereo not shown) [Example 2622, 5-((4-chloro-5-((2′-chloro-2-methyl-3′-((1-methylpiperidin-3-yl)methoxy)-[1,1′-biphenyl]-3-yl)methoxy)-2-((((4-ethylthiazol-2-yl)methyl)amino)methyl)phenoxy)methyl)nicotinonitrile] | 8.08
11 | Cc1c(COc2cc(OCc3cncc(C#N)c3)c(CN3CCCCC3c3cn[nH]c3)cc2Cl)cccc1-c1cccc(OCC2CCCN(C)C2)c1Cl (stereo not shown) [Example 1020, 5-((2-((2-(1H-Pyrazol-4-yl)piperidin-1-yl)methyl)-4-chloro-5-((2′-chloro-2-methyl-3′-((1-methylpiperidin-3-yl)methoxy)-[1,1′-biphenyl]-3-yl)methoxy)phenoxy)methyl)-nicotinonitrile] | 8.55
12 | Cc1nnc(CNCc2cc(Cl)c(OCc3cccc(-c4cccc(OCC5CCCN(C)C5)c4Cl)c3C)cc2OCc2cncc(C#N)c2)[nH]1 (stereo not shown) [Example 2604, 5-((4-chloro-5-((2′-chloro-2-methyl-3′-((1-methylpiperidin-3-yl)methoxy)-[1,1′-biphenyl]-3-yl)methoxy)-2-((((5-methyl-4H-1,2,4-triazol-3-yl)methyl)amino)methyl)phenoxy)methyl)nicotinonitrile] | 8.64
13 | Cc1c(COc2cc(OCc3cncc(C#N)c3)c(CNCc3ncco3)cc2Cl)cccc1-c1cccc(OCC2CCCN(C)C2)c1Cl (stereo not shown) [Example 2590, 5-((4-chloro-5-((2′-chloro-2-methyl-3′-((1-methylpiperidin-3-yl)methoxy)-[1,1′-biphenyl]-3-yl)methoxy)-2-(((oxazol-2-ylmethyl)amino)methyl)phenoxy)methyl)nicotinonitrile] | 8.70
14 | Cc1c(COc2cc(OCc3cncc(C#N)c3)c(CNCc3cnccn3)cc2Cl)cccc1-c1cccc(OCCCN2CC[C@@H](O)C2)c1C [Example 2020, (R)-5-((4-chloro-5-((3′-(3-(3-hydroxypyrrolidin-1-yl)propoxy)-2,2′-dimethyl-[1,1′-biphenyl]-3-yl)methoxy)-2-(((pyrazin-2-ylmethyl)amino)methyl)phenoxy)methyl)nicotinonitrile] | 8.57
15 | Cc1c(COc2cc(OCc3cncc(C#N)c3)c(CNCc3ncc[nH]3)cc2Cl)cccc1-c1cccc(OC2CCC(N3CCCC3)CC2)c1Cl (stereo not shown) [Example 2053, 5-((2-((((1H-imidazol-2-yl)methyl)amino)methyl)-4-chloro-5-((2′-chloro-2-methyl-3′-((4-(pyrrolidin-1-yl)cyclohexyl)oxy)-[1,1′-biphenyl]-3-yl)methoxy)phenoxy)methyl)nicotinonitrile] | 8.54
16 | Cc1c(COc2cc(OCc3cncc(C#N)c3)c(CN3CCCC(c4nnn[nH]4)C3)cc2Cl)cccc1-c1cccc(OCCCN2CC[C@@H](O)C2)c1C (stereo partly drawn) [Example 1018, 5-((2-((3-(1H-Tetrazol-5-yl)piperidin-1-yl)methyl)-4-chloro-5-((3′-(3-((R)-3-hydroxy-pyrrolidin-1-yl)propoxy)-2,2′-dimethyl-[1,1′-biphenyl]-3-yl)methoxy)phenoxy)methyl)-nicotinonitrile] | 9.30
